{"source": "patent US7888357B2", "about": "“Anti-inflammatory and protein kinase inhibitor compositions and related methods for downregulation of detrimental cellular responses and inhibition of cell death” (Northwestern University, priority 2001, dated 2011)", "key": {"rat astrocytes": {"tested_on": "rat astrocytes", "test": "Western blot of glial activation responses in rat astrocyte cultures", "assay_type": "cell-based", "conditions": "for GFAP levels: activated rat astrocytes", "experimental": "FIG. 2. Selective effects of compound 1 (MW01-070C) on glial activation responses and gene-regulating protein kinase pathways. BV-2 cells and rat astrocytes were treated with control buffer (C) or stimulated with LPS or Aβ1-42 peptide in the presence or absence of compound 1, and cell lysates were analyzed by Western blots. (A) Astrocytes treated with LPS and compound 1 show concentration-dependent inhibition of iNOS and IL-1β production but not GFAP. (B) Astrocytes treated with A β1-42 and compound 1 (10 μM) show inhibition of iNOS and IL-1β but not apoE and COX-2. (C) BV-2 cells treated with LPS and compound 1 (10 μM) show inhibition of phosphorylated (p-) CREB but not p-p38 and p-ATF2, as assayed with antibodies that are specific for the phosphorylated forms of the proteins. Data are expressed as percent control (mean±SD; n=3 determinations).\nThe rationale for using BV-2 cells in high throughput screening was the paucity of well-characterized human microglial cell lines, and the relevant activation responses and signaling pathways reflect those seen in human and rodent primary microglial cultures. Compounds were tested for their effects on NO accumulation in conditioned media of LPS-stimulated BV-2 cells by measurement of nitrite production by the Griess assay as a read-out for iNOS activity, as described previously. Stock solutions of compounds were prepared in dimethylsulfoxide (DMSO) or in water. When stock solutions were prepared in DMSO, control wells contained the same final concentration of DMSO as the compound-containing wells. […] Solutions of compounds for cell treatments were diluted to a 10× final concentration by dilution of stock solutions in αMEM media. The commercially available drugs tested were: compound 5 (KN93 from Alexis); compound 6 (pyrrolidinedithiocarbamate or PDTC from Sigma), compound 7 (SB203580 from Alexis Corporation), compound 8 (PD98059 from Alexis Corporation), and compound 9 (UO126 from Cell Signaling). SB203580, U0126 and PD98059, PDTC, and KN93 are used as pathway-selective inhibitors of p38 MAPK, MEK1/2, NFκB, and CaMKII signaling pathways. Respectively, Western blots of cell lysates were done with the following antibodies: monoclonal anti-iNOS (1:1000 dilution, Transduction Labs); polyclonal anti-rat IL-1β (1:1000 dilution, R&D Systems, Inc.); monoclonal anti-glial fibrillary acidic protein (GFAP) (1:[…] dilution, Sigma); polyclonal anti-rat alioE (1:15,000 dilution) prepared as described; polyclonal anti-COX-2 (1:500 dilution) and monoclonal anti-phosphoATF2 (1:1000 dilution) from Santa Cruz Biotechnology, polyclonal anti-phosphoCREB (1:1000 dilution), and polyclonal anti-phosphop38 MAPK (1:1000 dilution). Reconstituted enzyme assays were done as described s. The sources of protein kinases were: bovine heart PKA from Promega, rat brain PKC from Calbiochem, rat CaMKII from New England Biolabs, chicken gizzard MLCK prepared as described, and a p38 MAP kinase kit containing recombinant Xenopus p38-MAPK and its human substrate from Upstate Biotechnology. The catalytic domains of these protein kinases retain a high level of amino acid sequence identity across mammalian species, consistent with the lack of documented major differences across species for the in vitro catalytic activity of a given kinase.\nFIG. 5. Effects of two compounds on LPS-stimulated INOS and IL-1β production in rat astrocyte cultures. Astrocyte cultures were incubated for 24 hr with control buffer (C), LPS (100 ng/ml) alone, or LPS in the presence of increasing concentrations (0.1, 0.3, 1, 3, 10 μM) of MW01-070C (panel A) or MW01-196A (panel B). The levels of iNOS, proIL-1β, and GFAP were determined by Western blot of cell lysates.\nFIG. 6. Effects of MW01-070C on astrocytes treated with various activating stimuli, and analysis of multiple activation responses. Astrocyte cultures were stimulated for 12 hr with Aβ (10 μM), S100B (0.5 μM), or LPS (100 ng/ml) in the absence (−) or presence (+) of MW01-070C (10 μM). […]"}, "rats": {"tested_on": "rats", "test": "Organ histology after high dose injections", "assay_type": "in vivo, rat", "conditions": "after high dose injections into rats (data not shown)"}, "[1]": {"conditions": "LPS-stimulated rat astrocytes, 24 hr, Western blot"}, "[2]": {"conditions": "LPS-stimulated rat astrocytes, 24 hr, Western blot, listed as 1"}, "[3]": {"conditions": "activated astrocytes, compound 10 μM"}, "[4]": {"conditions": "astrocytes stimulated by S100 (0.5 μM), 12 hr, compound 10 μM"}, "[5]": {"conditions": "glia stimulated by Aβ1-42, compound 10 μM"}}, "data": [{"smiles": "N=c1cc2c(nn1CCCCCCCCCCC(=O)N1CCN(c3ncccn3)CC1)-c1ccccc1CC2", "note": "[MW01-070C]", "values": [{"measurement": "IL-1β production", "setting": "rat astrocytes; [1]", "value": "dose dependent inhibition"}, {"measurement": "iNOS production", "setting": "rat astrocytes; [1]", "value": "dose dependent inhibition"}, {"measurement": "IL-1β production", "setting": "rat astrocytes; [2]", "value": "inhibits"}, {"measurement": "iNOS production", "setting": "rat astrocytes; [2]", "value": "inhibits"}, {"measurement": "COX-2 levels", "setting": "rat astrocytes; [3]", "value": "no effect"}, {"measurement": "apoE production", "setting": "rat astrocytes; [3]", "value": "no effect"}, {"measurement": "GFAP levels", "setting": "rat astrocytes; Western blot", "value": "no change"}, {"measurement": "GFAP levels", "setting": "rat astrocytes; Western blot, listed as 1", "value": "not changed"}, {"measurement": "IL-1β production", "setting": "rat astrocytes; [4]", "value": "inhibits"}, {"measurement": "iNOS production", "setting": "rat astrocytes; [4]", "value": "inhibits"}, {"measurement": "IL-1β production", "setting": "rat astrocytes; [5]", "value": "inhibits"}, {"measurement": "iNOS production", "setting": "rat astrocytes; [5]", "value": "inhibits"}, {"measurement": "liver, kidney or brain damage based on histology", "setting": "rats", "value": "no major liver, kidney or brain damage"}]}]}
